Reference: patent US9950026B2, “Methods for reducing oxidative damage” (Cornell Research Foundation, Inc., priority 2004, dated 2018)
Where a SMILES comes first, the peptide text is derived from it. [ ]: non-standard residue; d: D form. Dmt = Cc1cc(O)cc(C)c1C[C@H](N)C(=O)O

How the values were obtained:
DBA/2 mice islets = assay: Islets isolated from donor mice pre-treated with SS-31 (TMRM, yield, Annexin V/PI flow cytometry); assay type: in vivo
Description: FIG. 33A-33B. SS peptides penetrate islet cells, co-localize with mitochondria and preserve islet mitochondrial membrane potential. (A) Islet cell uptake of SS-31. DBA/2 islet cells were incubated with 1 nM of tritium labeled SS-31 and 1 μM unlabeled SS-31 at 37° C. for 1 h. Following incubation, radioactivity was measured in the medium and in cell lysates and the radioactive counts in the medium were subtracted from radioactive counts in the cell lysate and normalized to protein content. In four consecutive experiments, the mean±(SE) [^3H]SS-31 uptake was 70.2+/31 10.3 pmol/mg, of proteins (B)(i-iv) SS-31 preserves islet mitochondrial potential. DBA/2 mice were treated with SS-31 (3 mg/kg s.c. BID) or vehicle control 24 hours prior to pancreas harvest for islet isolation. SS-31 treated groups had 1 nM SS-31 added to the islet isolation reagents. Following isolation, TMRM uptake was evaluated using confocal laser scanning microscopy.
FIG. 34A-34D. SS-31 reduces islet cell apoptosis. DBA/2 mice were pre-treated (24 and 12-hours hours prior to pancreas harvest and islet isolation) with SS-31 (3 mg/kg, s.c., BID) or vehicle control. SS-31 (1 nM was added to reagents used for the isolation of islets from SS-31-treated mice. The islets were dissociated in to single cells with trypsin/EDTA and were stained with Annexin V-FITC (AnV) and propidium iodide (PI) and analyzed with the use of dual parameter low cytometry. (A) Percentage of cell undergoing early apoptosis (AnV+cells); P=0.03. (B) Percentage of cells undergoing late apoptosis/early necrosis (AnV+/PI+cells); P=0.03. (C) Percentage of necrotic cells (PI+cells); P=1.0 (D) Percentage of viable cells (AnV-/PI-cells); P=0.03. Data from individual pancreatic islet isolations and mean±SE are shown, N=number of separate islet isolations. Two-tailed P-values were calculated using Mann-Whitney t-test.
Mitochondrial depolarization and the release of cytochrome c into the cytoplasm are critical antecedent events to cell death. TMRM, a fluorescent cationic indicator is taken up into mitochondria in a potential dependent manner.
To investigate whether the SS-31 optimizes islet isolation and results in increased islet yield, islet donor mice were pre-treated with SS-31.

N2A cells [1] = assay: Mitochondrial potential (TMRM) after tBHP; assay type: cell-based, murine; details: 0.1 mM t-BHP, 1 nM SS-31, 6 h
Description: N2A cells in glass bottom dish were treated with 0.1 mM t-BHP, alone or with 1 nM SS-31, for 6 h. Cells were then loaded with 10 μm of dichlorofluorescin (ex/em=485/530) for 30 min at 37° C., 5% CO2. Then cells were subjected 3 times wash with HBSS and stained with 20 nM of Mitotracker TMRM (ex/em=550/575 nm) for 15 min at 37° C. and examined by confocal laser scanning microscopy.

[2] = tested on: G93A-SOD transfected murine neuroblastoma (N2A) cells; assay: H2O2-induced cell death (LDH release); assay type: cell-based; details: SS-31 between 1 and 100 μM added 1 h after exposure to H2O2
Description: FIG. 24. Increased hydrogen peroxide (H2O2) sensitivity of G93A-SOD transfected murine neuroblastoma (N2A) cells as compared to wildtype SOD-transfected N2A cells after addition of 0.5 or 1 mM H2O2 for 1 h. Cell death was quantified by measurement of the percentage of H2O2-induced LDH release of total cellular LDH-content. […] Values are means+S.D., n=4-5, *p<0.1, **p<0.05, Student's t-test.

SH-SY5Y = assay: tBHP-induced LDH release; assay type: cell-based, human; details: 100 μM tBHP
Description: FIG. 18A-18B. SS-31 reduced tBHP-induced LDH release in SH-SY5Y (A) and N2A (B) cells. Cells were treated with 100 μM tBHP alone, or with SS-31, for 24 h. *P<0.05, **P<0.01, ***P<0.001, compared to tBHP alone.
The loss of cell viability induced by 100 μM tBHP was accompanied by a significant increase in LDH release in SH-SY5Y (FIG. 18A) and N2A cell (FIG. 18B).

N2A cells [3] = assay: Caspase-9 activity (FLICA) after tBHP; assay type: cell-based, murine; details: 50 μM tBHP, 12 h, 1 nM SS-31
Description: FIG. 21A-B. SS-31 prevented caspase activation in N2A cells treated with tBHP. […] (B)(a-c) N2A cells were treated with 50 μM tBHP for 12 h and stained with caspase-9 FLICA™ kit containing red fluorescent inhibitor SR-LEHD-FMK and Hoechst 33342.

SN-4741 cells = assay: MPP+ toxicity, apoptosis by Hoechst 33342; assay type: cell-based; details: 50 μM MPP+, 1 nM SS-31, 48 h
Description: (A) SS-31 protects dopamine cells against MPP^+ toxicity. SN-4741 cells were treated with buffer, 50 μM MPP^+ or 50 μM MPP^+ and 1 nM SS-31, for 48 h, and the incidence of apoptosis was determined by fluorescent microscopy with Hoechst 33342.

SH-SY5Y cells = assay: Apoptosis by nuclear morphology (Hoechst 33342) after tBHP; assay type: cell-based, human
Description: FIG. 20A-20C. […] (A)(a-c; a′-c′) N2A cells were treated with 50 μM tBHP alone or with SS-31 for 12 h. Cells were stained with Hoechst 33342 for 20 min., fixed, and imaged by fluorescent microscopy. (a) Untreated cells show uniformly stained nuclei (a′). […] (c) Cells treated with tBHP and 1 nM SS-31 had less nuclear changes (c′). […] Apoptotic cells were counted using MetaMorph software. *P<0.01 compared to untreated cells; *P<0.01 compared to tBHP alone. […] SH-SY5Y cells were treated with 25 μM tBHP for 24 h. *P<0.01 compared to untreated cells; *P<0.01 compared to tBHP alone.
SH-SY5Y cells were grown on 96-well plates, treated with t-BHP (0.025 mM) in the absence or presence of SS-31 (10^−12M-10^−9M) at 37° C. for 24 h. All treatments were carried out in quadriplicates. Cells were then stained with […] Hoechst 33342 for 20 min, fixed with 4% paraformaldehyde, and imaged using a Zeiss fluorescent microscope (Axiovert 200M) equipped with the Zeiss Acroplan x20 objective. Nuclear morphology was evaluated using an excitation wavelength of 350±10 nm and a longpass filter of 400 nm for emission. All images were processed and analyzed using the MetaMorph software (Universal Imaging Corp., West Chester, Pa.). Uniformly stained nuclei were scored as healthy, viable neurons, while condensed or fragmented nuclei were scored as apoptotic.

Cc1cc(O)cc(C)c1C[C@H](NC(=O)[C@H](N)CCCNC(=N)N)C(=O)N[C@@H](CCCCN)C(=O)N[C@@H](Cc1ccccc1)C(N)=O [SS-31, D-Arg-2′6′-Dmt-Lys-Phe-NH2] (H-[dR][Dmt]KF-NH2; N-terminus assumed)
uptake of TMRM by islets (mitochondrial potential) (DBA/2 mice islets; SS-31 3 mg/kg s.c. BID to donor, 1 nM in isolation reagents): greater uptake of TMRM
islet yield, mean±(SE) (DBA/2 mice islets; donor mice pre-treated with SS-31): 291±60 islets per pancreas
islet cell viability (Annexin V-/PI- cells) (DBA/2 mice islets; donor mice treated with SS-31): 62±3.5%
late apoptosis/early necrosis (Annexin V+/PI+ cells) (DBA/2 mice islets; donor mice treated with SS-31): 12.6±1.8%
percentage of early apoptotic cells (Annexin V alone positive cells) (DBA/2 mice islets; donor mice treated with SS-31): 5.5±1.0%
percentage of necrotic cells (PI+ cells) (DBA/2 mice islets; donor mice treated with SS-31): did not reduce
mitochondrial depolarization (TMRM fluorescence) (N2A cells [1]): prevented mitochondrial depolarization
H2O2-induced cell death [2]: significantly reduced
LDH release (SH-SY5Y; 0.1 and 1 nM of SS-31): reduced significantly
LDH release (SH-SY5Y; 24 h): dose-dependent decrease
cells showing caspase-9 staining (N2A cells [3]): reduced the number of cells showing caspase-9 staining
number of apoptotic cells (SN-4741 cells): reduced the number of apoptotic cells
number of apoptotic cells (SH-SY5Y cells; 25 μM tBHP, 24 h): dose-dependently reduced
apoptosis induced by a low dose of t-BHP (SH-SY5Y cells; 0.025 mM t-BHP, 1 nM SS-31, 24 h): prevents apoptosis
percent of apoptotic cells (SH-SY5Y cells; 24 h, t-BHP 0.05 mM): dose-dependently reduced
